Assay results from paper PMC6272230, “Uses of 3-(2-Bromoacetyl)-2H-chromen-2-one in the Synthesis of Heterocyclic Compounds Incorporating Coumarin: Synthesis, Characterization and Cytotoxicity” (Molecules, 2015).
Read-outs that look alike come from different tables or passages of the source. Values belong to the compound of their own block, whether it stands above or below them.

Legend:
[1] = system: human gastric cancer (NUGC); experiment: In vitro cytotoxicity against NUGC cells; assay type: cell-based; conditions: read-out: Cytotoxicity (IC50 in nM) NUGC
Experimental: (§1) The heterocyclic compounds, prepared in this study, were evaluated according to standard protocols for their in vitro cytotoxicity against six human cancer cell lines including cells derived from human gastric cancer (NUGC), human colon cancer (DLD1), human liver cancer (HA22T and HEPG2), nasopharyngeal carcinoma (HONE1), human breast cancer (MCF) and normal fibroblast cells (WI38). For comparison purposes, CHS 828, a pyridyl cyanoguanidine, was used as a standard antitumor drug (Figure 2). […] All the synthesized compounds were tested for their cytotoxicity against normal fibroblast cells.
(§2) Fetal bovine serum (FBS) and L-glutamine, were purchased from Gibco Invitrogen Co. (Scotland, UK). RPMI-1640 medium was purchased from Cambrex (East Rutherford, NJ, USA). Dimethyl sulfoxide (DMSO), CHS 828, penicillin, streptomycin and sulforhodamine B (SRB) were purchased from Sigma Chemical Co. (Saint Louis, MO, USA).
(§3) Cell cultures were obtained from the European Collection of Cell Cultures (ECACC, Salisbury, UK) and human gastric cancer (NUGC), human colon cancer (DLD1), human liver cancer (HA22T and HEPG2), human breast cancer (MCF), nasopharyngeal carcinoma (HONE1) and normal fibroblast cells (WI38) were kindly provided by the National Cancer Institute (NCI, Cairo, Egypt). They were grown as a monolayer and routinely maintained in RPMI-1640 medium supplemented with 5% heat inactivated FBS, 2 mM glutamine and antibiotics (penicillin 100 U/mL, streptomycin 100 µg/mL) at 37 °C in a humidified atmosphere containing 5% CO2. Exponentially growing cells were obtained by plating 1.5 × 10^5 cells/mL for the six human cancer cell lines followed by 24 h of incubation. The effect of the vehicle solvent (DMSO) on the growth of these cell lines was evaluated in all the experiments by exposing untreated control cells to the maximum concentration (0.5%) of DMSO used in each assay.

[2] = system: human colon cancer (DLD1); experiment: In vitro cytotoxicity against DLD1 cells; assay type: cell-based
Experimental: as §1, §2, §3

[3] = system: human breast cancer (MCF); experiment: In vitro cytotoxicity against MCF cells; assay type: cell-based; conditions: read-out: Cytotoxicity (IC50 in nM) MCF
Experimental: as §1, §2, §3

[4] = system: human liver cancer (HA22T); experiment: In vitro cytotoxicity against HA22T cells; assay type: cell-based; conditions: read-out: Cytotoxicity (IC50 in nM) HA22T
Experimental: as §1, §2, §3

[5] = system: human liver cancer (HEPG2); experiment: In vitro cytotoxicity against HEPG2 cells; assay type: cell-based
Experimental: as §1, §2, §3

[6] = system: nasopharyngeal carcinoma (HONE1); experiment: In vitro cytotoxicity against HONE1 cells; assay type: cell-based; conditions: Homo sapiens
Experimental: as §1, §2, §3

[7] = In vitro cytotoxicity against normal fibroblast cells WI38; assay type: cell-based; conditions: human, concentration producing 50% reduction in cell growth
Experimental: as §1, §2, §3

[8] = gastric cancer, concentration producing 50% reduction in cell growth
[9] = DLD-1, DLDI, colon cancer, concentration producing 50% reduction in cell growth, read-out: Cytotoxicity (IC50 in nM) DLDI
[10] = MCF, breast cancer, concentration producing 50% reduction in cell growth
[11] = liver cancer, concentration producing 50% reduction in cell growth
[12] = HEPG2, liver cancer, concentration producing 50% reduction in cell growth, read-out: Cytotoxicity (IC50 in nM) HEPG2
[13] = HONE1, nasopharyngeal carcinoma, concentration producing 50% reduction in cell growth, read-out: Cytotoxicity (IC50 in nM) HONE1

SMILES: N#CN=C(NCCCCCCOc1ccc(Cl)cc1)Nc1ccncc1 [CHS 828, reference compound]
- IC50 [1]: 25 nM
- IC50 ([2]; DLD-1, read-out: Cytotoxicity (IC50 in nM) DLDI): 2320 nM
- IC50 [3]: 18 nM
- IC50 [4]: 2070 nM
- IC50 ([5]; HepG2, read-out: Cytotoxicity (IC50 in nM) HEPG2): 1240 nM
- IC50 ([6]; HONE1, read-out: Cytotoxicity (IC50 in nM) HONE1): 15 nM

SMILES: O=C(C(Br)=NNc1ccccc1)c1cc2ccccc2oc1=O [Compound 2, 2-oxo-2-(2-oxo-2H-chromen-3-yl)-N'-phenylacetohydrazonoylbromide]
- IC50 [1, 8]: 48 nM
- IC50 [2, 9]: 60 nM
- IC50 [3, 10]: 288 nM
- melting point: 88 to 90 °C
- IC50 [4, 11]: 1120 nM
- IC50 [5, 12]: 174 nM
- IC50 [6, 13]: 1480 nM

SMILES: N#CC(C#N)=C(CO)c1cc2ccccc2oc1=O [Compound 3, 2-(2-Hydroxy-1-(2-oxo-2H-chromen-3-yl)ethylidene)malononitrile]
- IC50 [1, 8]: 1160 nM
- IC50 [2, 9]: 1280 nM
- IC50 [3, 10]: 821 nM
- melting point: 162 to 164 °C
- IC50 [4, 11]: 1650 nM
- IC50 [5, 12]: 1230 nM
- IC50 [7]: 910 nM
- IC50 [6, 13]: 699 nM

SMILES: N#Cc1c(N)sc(Br)c1-c1cc2ccccc2oc1=O [Compound 4a, 2-Amino-5-bromo-4-(2-oxo-2H-chromen-3-yl)thiophene-3-carbonitrile]
- IC50 [1, 8]: 32 nM
- IC50 [2, 9]: 50 nM
- IC50 [3, 10]: 2060 nM
- melting point: 180 to 182 °C
- IC50 [4, 11]: 27 nM
- IC50 [5, 12]: 221 nM
- IC50 [7]: 780 nM
- IC50 [6, 13]: 228 nM

SMILES: CCOC(=O)c1c(N)sc(Br)c1-c1cc2ccccc2oc1=O [Compound 4b, Ethyl 2-amino-5-bromo-4-(2-oxo-2H-chromen-3-yl)thiophene-3-carboxylate]
- IC50 [1, 8]: 84 nM
- IC50 [2, 9]: 167 nM
- IC50 [3, 10]: 1140 nM
- melting point: 177 to 179 °C
- IC50 [4, 11]: 219 nM
- IC50 [5, 12]: 2020 nM
- IC50 [6, 13]: 1210 nM

SMILES: O=c1oc2ccccc2cc1-c1cn(-c2ccccc2)c(=Nc2ccccc2)s1 [Compound 5a, 3-(3-Phenyl-2-(phenylimino)-2,3-dihydrothiazol-5-yl)-2H-chromen-2-one]
- IC50 [1, 8]: 228 nM
- IC50 [2, 9]: 569 nM
- IC50 [3, 10]: 2010 nM
- melting point: 158 to 160 °C
- IC50 [4, 11]: 213 nM
- IC50 [5, 12]: 1110 nM
- IC50 [7]: 632 nM
- IC50 [6, 13]: 2050 nM

SMILES: Cc1ccc(-n2cc(-c3cc4ccccc4oc3=O)sc2=Nc2ccccc2)cc1 [Compound 5b, 3-(2-(Phenylimino)-3-(p-tolyl)-2,3-dihydrothiazol-5-yl)-2H-chromen-2-one]
- IC50 [1, 8]: 2210 nM
- IC50 [2, 9]: 1070 nM
- IC50 [3, 10]: 1230 nM
- melting point: 99 to 101 °C
- IC50 [4, 11]: 1290 nM
- IC50 [5, 12]: 1300 nM
- IC50 [7]: 489 nM
- IC50 [6, 13]: 2180 nM

SMILES: COc1ccc(-n2cc(-c3cc4ccccc4oc3=O)sc2=Nc2ccccc2)cc1 [Compound 5c, 3-(3-(4-Methoxyphenyl)-2-(phenylimino)-2,3-dihydrothiazol-5-yl)-2H-chromen-2-one]
- IC50 [1, 8]: 1620 nM
- IC50 [2, 9]: 396 nM
- IC50 [3, 10]: 1180 nM
- melting point: 103 to 105 °C
- IC50 [4, 11]: 274 nM
- IC50 [5, 12]: 2120 nM
- IC50 [7]: 490 nM
- IC50 [6, 13]: 670 nM

SMILES: O=c1oc2ccccc2cc1-c1cn(-c2ccc(Cl)cc2)c(=Nc2ccccc2)s1 [Compound 5d, 3-(3-(4-Chlorophenyl)-2-(phenylimino)-2,3-dihydrothiazol-5-yl)-2H-chromen-2-one]
- IC50 [1, 8]: 38 nM
- IC50 [2, 9]: 163 nM
- IC50 [3, 10]: 1260 nM
- melting point: 123 to 125 °C
- IC50 [4, 11]: 120 nM
- IC50 [5, 12]: 3740 nM
- IC50 [7]: 860 nM
- IC50 [6, 13]: 441 nM

SMILES: Nc1cc(-c2cc3ccccc3oc2=O)n[nH]1 [Compound 9a, 3-(5-Amino-1H-pyrazol-3-yl)-2H-chromen-2-one]
- IC50 [1, 8]: 3470 nM
- IC50 [2, 9]: 48 nM
- IC50 [3, 10]: 1290 nM
- melting point: 218 to 220 °C
- IC50 [4, 11]: 2170 nM
- IC50 [5, 12]: 359 nM
- IC50 [6, 13]: 442 nM

SMILES: Nc1cc(-c2cc3ccccc3oc2=O)nn1-c1ccccc1 [Compound 9b, 3-(5-Amino-1-phenyl-1H-pyrazol-3-yl)-2H-chromen-2-one]
- IC50 [1, 8]: 1120 nM
- IC50 [2, 9]: 2240 nM
- IC50 [3, 10]: 1650 nM
- melting point: 158 to 160 °C
- IC50 [4, 11]: 1580 nM
- IC50 [5, 12]: 415 nM
- IC50 [6, 13]: 4270 nM

Second part, led by results:

- melting point: 140 to 142 °C
SMILES: N#CC1=C(N)OC(c2cc3ccccc3oc2=O)=C(Br)C1c1ccccc1 (stereo not shown) [Compound 6a, 2-Amino-5-bromo-6-(2-oxo-2H-chromen-3-yl)-4-phenyl-4H-pyran-3-carbonitrile]
- IC50 [1, 8]: 1090 nM
- IC50 [2, 9]: 303 nM
- IC50 [3, 10]: 2180 nM
- IC50 [4, 11]: 1240 nM
- IC50 [5, 12]: 59 nM
- IC50 [6, 13]: 1180 nM

- melting point: 148 to 150 °C
SMILES: N#CC1=C(N)OC(c2cc3ccccc3oc2=O)=C(Br)C1c1ccco1 (stereo not shown) [Compound 6d, 2-Amino-5-bromo-4-(furan-2-yl)-6-(2-oxo-2H-chromen-3-yl)-4H-pyran-3-carbonitrile]
- IC50 [1, 8]: 29 nM
- IC50 [2, 9]: 98 nM
- IC50 [3, 10]: 931 nM
- IC50 [4, 11]: 2110 nM
- IC50 [5, 12]: 360 nM
- IC50 [6, 13]: 279 nM

- melting point: 206 to 208 °C
SMILES: N#CC1=C(N)NC(c2cc3ccccc3oc2=O)=C(Br)C1c1ccc(Cl)cc1 (stereo not shown) [Compound 7c, 2-Amino-5-bromo-4-(4-chlorophenyl)-6-(2-oxo-2H-chromen-3-yl)-1,4-dihydropyridine-3-carbonitrile]
- IC50 [1, 8]: 98 nM
- IC50 [2, 9]: 32 nM
- IC50 [3, 10]: 43 nM
- IC50 [4, 11]: 128 nM
- IC50 [5, 12]: 416 nM
- IC50 [6, 13]: 221 nM

- melting point: 205 to 207 °C
SMILES: N#CC1=C(N)NC(c2cc3ccccc3oc2=O)=C(Br)C1c1ccco1 (stereo not shown) [Compound 7d, 2-Amino-5-bromo-4-(furan-2-yl)-6-(2-oxo-2H-chromen-3-yl)-1,4-dihydropyridine-3-carbonitrile]
- IC50 [1, 8]: 682 nM
- IC50 [2, 9]: 163 nM
- IC50 [3, 10]: 1130 nM
- IC50 [4, 11]: 52 nM
- IC50 [5, 12]: 2730 nM
- IC50 [6, 13]: 1190 nM

- melting point: 113 to 115 °C
SMILES: COc1ccc(C2C(C#N)=C(N)OC(c3cc4ccccc4oc3=O)=C2C#N)cc1 (stereo not shown) [Compound 10b, 2-Amino-4-(4-methoxyphenyl)-6-(2-oxo-2H-chromen-3-yl)-4H-pyran-3,5-dicarbonitrile]
- IC50 [1, 8]: 1340 nM
- IC50 [2, 9]: 2280 nM
- IC50 [3, 10]: 2120 nM
- IC50 [4, 11]: 89 nM
- IC50 [5, 12]: 1320 nM
- IC50 [6, 13]: 2180 nM

- melting point: 178 to 180 °C
SMILES: N#CC1=C(N)OC(c2cc3ccccc3oc2=O)=C(C#N)C1c1ccc(Cl)cc1 (stereo not shown) [Compound 10c, 2-Amino-4-(4-chlorophenyl)-6-(2-oxo-2H-chromen-3-yl)-4H-pyran-3,5-dicarbonitrile]
- IC50 [1, 8]: 312 nM
- IC50 [2, 9]: 193 nM
- IC50 [3, 10]: 584 nM
- IC50 [4, 11]: 4170 nM
- IC50 [5, 12]: 399 nM
- IC50 [6, 13]: 89 nM

- melting point: 133 to 135 °C
SMILES: N#CC1=C(N)OC(c2cc3ccccc3oc2=O)=C(C#N)C1c1ccco1 (stereo not shown) [Compound 10d, 2-Amino-4-(furan-2-yl)-6-(2-oxo-2H-chromen-3-yl)-4H-pyran-3,5-dicarbonitrile]
- IC50 [1, 8]: 47 nM
- IC50 [2, 9]: 68 nM
- IC50 [3, 10]: 2250 nM
- IC50 [4, 11]: 102 nM
- IC50 [5, 12]: 3320 nM
- IC50 [6, 13]: 220 nM

- melting point: 99 to 101 °C
SMILES: COc1ccc(C2C(C#N)=C(N)NC(c3cc4ccccc4oc3=O)=C2C#N)cc1 (stereo not shown) [Compound 11b, 2-Amino-4-(4-methoxyphenyl)-6-(2-oxo-2H-chromen-3-yl)-1,4-dihydropyridine-3,5-dicarbonitrile]
- IC50 [1, 8]: 124 nM
- IC50 [2, 9]: 58 nM
- IC50 [3, 10]: 39 nM
- IC50 [4, 11]: 3060 nM
- IC50 [5, 12]: 215 nM
- IC50 [6, 13]: 1670 nM

- melting point: 197 to 199 °C
SMILES: N#CC1=C(N)NC(c2cc3ccccc3oc2=O)=C(C#N)C1c1ccc(Cl)cc1 (stereo not shown) [Compound 11c, 2-Amino-4-(4-chlorophenyl)-6-(2-oxo-2H-chromen-3-yl)-1,4-dihydropyridine-3,5-dicarbonitrile]
- IC50 [1, 8]: 1280 nM
- IC50 [2, 9]: 483 nM
- IC50 [3, 10]: 839 nM
- IC50 [4, 11]: 2060 nM
- IC50 [5, 12]: 424 nM
- IC50 [6, 13]: 1770 nM
